Laboratory results from the supplement of paper PMC10307832.

Experiments:
Assay in all cases: relative viability (nuclei count vs DMSO), 5 days (fraction); higher = more cells survive
XMD13-2 + Trametinib = compound: C1CC1C(=O)NC2=NNC3=C2C=CC(=C3)C4=CC(=CC=C4)C(=O)NC5CC5 [XMD13-2] + CC(=O)Nc1cccc(-n2c(=O)n(C3CC3)c(=O)c3c(Nc4ccc(I)cc4F)n(C)c(=O)c(C)c32)c1 [Trametinib] (partner 0.02 µM)
In short: (§1)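 Lung cancer cell lines in 1536-well plates were dosed by pin tool the day after seeding, either with one drug alone or with a fixed anchor-drug dose plus five library-drug doses (not always all listed) in √10 steps. After 5 days, cells were fixed and their nuclei stained in one step (final 0.05% Triton X-100, 1% formaldehyde, 1 ug/ml Hoechst), then counted on 4× images. Relative viability is the nuclei count in treated wells divided by that in vehicle wells. Values are medians of duplicate plates.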

Dasatinib + Trametinib = compound: Cc1nc(Nc2ncc(C(=O)Nc3c(C)cccc3Cl)s2)cc(N2CCN(CCO)CC2)n1 [Dasatinib] + CC(=O)Nc1cccc(-n2c(=O)n(C3CC3)c(=O)c3c(Nc4ccc(I)cc4F)n(C)c(=O)c(C)c32)c1 [Trametinib] (partner 0.02 µM)
In short: as §1

ALW-II-49-7 + Lapatinib = compound: Cc1ccc(C(=O)Nc2cccc(C(F)(F)F)c2)cc1Nc1cncc(C(N)=O)c1 [ALW-II-49-7] + CS(=O)(=O)CCNCc1ccc(-c2ccc3ncnc(Nc4ccc(OCc5cccc(F)c5)c(Cl)c4)c3c2)o1 [Lapatinib] (partner 2 µM)
In short: as §1

Dasatinib + Crizotinib = compound: Cc1nc(Nc2ncc(C(=O)Nc3c(C)cccc3Cl)s2)cc(N2CCN(CCO)CC2)n1 [Dasatinib] + C[C@@H](Oc1cc(-c2cnn(C3CCNCC3)c2)cnc1N)c1c(Cl)ccc(F)c1Cl [Crizotinib] (partner 1 µM)
In short: as §1

Cell Line | relative viability (XMD13-2 + Trametinib; first compound 0.05 µM) | relative viability (XMD13-2 + Trametinib; first compound 0.1581 µM) | relative viability (XMD13-2 + Trametinib; first compound 0.5 µM) | relative viability (XMD13-2 + Trametinib; first compound 1.581 µM) | relative viability (XMD13-2 + Trametinib; first compound 5 µM) | relative viability (Dasatinib + Trametinib; first compound 0.005 µM) | relative viability (Dasatinib + Trametinib; first compound 0.01581 µM) | relative viability (Dasatinib + Trametinib; first compound 0.05 µM) | relative viability (Dasatinib + Trametinib; first compound 0.1581 µM) | relative viability (Dasatinib + Trametinib; first compound 0.5 µM) | relative viability (ALW-II-49-7 + Lapatinib; first compound 0.08 µM) | relative viability (ALW-II-49-7 + Lapatinib; first compound 0.253 µM) | relative viability (ALW-II-49-7 + Lapatinib; first compound 0.8 µM) | relative viability (ALW-II-49-7 + Lapatinib; first compound 2.53 µM) | relative viability (ALW-II-49-7 + Lapatinib; first compound 8 µM) | relative viability (Dasatinib + Crizotinib; first compound 0.005 µM) | relative viability (Dasatinib + Crizotinib; first compound 0.01581 µM) | relative viability (Dasatinib + Crizotinib; first compound 0.05 µM) | relative viability (Dasatinib + Crizotinib; first compound 0.1581 µM) | relative viability (Dasatinib + Crizotinib; first compound 0.5 µM)
LU99A | 0.581 | 0.532 | 0.546 | 0.54 | 0.352 | 0.539 | 0.576 | 0.458 | 0.372 | 0.328 | 1.03 | 0.919 | 0.739 | 1.12 | 0.999 | 0.538 | 0.458 | 0.473 | 0.274 | 0.301
LXF-289 | 0.672 | 0.73 | 0.731 | 0.642 | 0.731 | 0.678 | 0.746 | 0.821 | 0.555 | 0.219 | 0.864 | 0.818 | 0.922 | 1.01 | 0.967 | 0.849 | 0.912 | 0.857 | 0.197 | 0.136
NCI-H23 | 0.358 | 0.432 | 0.438 | 0.371 | 0.353 | 0.376 | 0.278 | 0.231 | 0.188 | 0.168 | 0.88 | 1.1 | 1.35 | 1.02 | 1.01 | 0.409 | 0.425 | 0.385 | 0.304 | 0.213
NCI-H322M | 0.396 | 0.51 | 0.446 | – | 0.565 | 0.543 | 0.44 | 0.429 | 0.333 | 0.269 | 0.592 | 0.583 | 0.613 | 0.635 | 0.556 | 0.953 | 0.785 | 0.753 | 0.336 | 0.155
NCI-H358 | 0.128 | 0.127 | 0.132 | 0.13 | 0.135 | 0.151 | 0.116 | 0.105 | 0.0936 | 0.089 | 0.518 | 0.387 | 0.423 | 0.538 | 0.5 | 0.507 | 0.437 | 0.349 | 0.282 | 0.194
NCI-H460 | 0.288 | 0.13 | 0.209 | 0.195 | 0.167 | 0.0853 | 0.0968 | 0.0795 | 0.0504 | 0.0455 | 0.834 | 0.701 | 1.03 | 0.936 | 0.528 | 0.729 | 0.602 | 0.432 | 0.243 | 0.218
NCI-H520 | 0.7 | 0.7 | 0.723 | 0.563 | 0.396 | 0.614 | 0.322 | 0.298 | 0.144 | 0.205 | 0.666 | 0.544 | – | 0.627 | 0.846 | 0.656 | 0.442 | 0.419 | 0.144 | 0.138
NCI-H596 | 0.826 | 0.857 | 0.965 | 0.954 | 0.798 | 0.7 | 0.578 | 0.56 | 0.431 | 0.323 | 1.03 | 1.1 | 1.13 | 1.02 | 0.978 | 0.966 | 0.811 | 0.637 | 0.519 | 0.315
NCI-H647 | 0.621 | 0.4 | 0.587 | 0.431 | 0.305 | 0.372 | 0.224 | 0.244 | 0.145 | 0.116 | 0.779 | 0.772 | 1.18 | 0.806 | 0.855 | 0.734 | 0.526 | 0.285 | 0.149 | 0.133
NCI-H650 | 1.37 | 1.02 | 1.05 | 0.917 | 0.991 | 0.888 | 0.899 | 0.847 | 0.503 | 0.458 | 0.843 | 0.843 | 0.915 | 0.841 | 0.662 | 0.741 | 0.61 | 0.632 | 0.444 | 0.3
NCI-H661 | 0.538 | 0.614 | 0.665 | 0.615 | 0.409 | 0.629 | 0.49 | 0.532 | 0.445 | 0.338 | 0.47 | 0.474 | 0.383 | – | 0.483 | 1.08 | 1.19 | 0.972 | 0.8 | 0.547
NCI-H727 | 0.401 | 0.431 | 0.37 | 0.382 | 0.38 | 0.355 | 0.281 | 0.322 | 0.296 | 0.25 | 0.984 | 1.08 | 0.872 | 0.965 | 0.871 | 0.707 | 0.548 | 0.491 | 0.241 | 0.223
NCI-H838 | 0.552 | 0.569 | 0.576 | 0.557 | 0.552 | 0.486 | 0.435 | 0.365 | 0.227 | 0.142 | 0.941 | 0.887 | 0.797 | 1.04 | 0.853 | 0.571 | 0.577 | 0.306 | 0.23 | 0.202
NCI-H1355 | 0.544 | 0.428 | 0.457 | 0.42 | 0.428 | 0.48 | 0.346 | 0.5 | 0.293 | 0.265 | 0.959 | 1.13 | 0.97 | 1.02 | 0.934 | 1.04 | 0.781 | 0.983 | 0.585 | 0.443
NCI-H1437 | 0.598 | 0.49 | 0.482 | 0.498 | 0.417 | 0.55 | 0.465 | 0.433 | 0.305 | 0.25 | 0.786 | 0.731 | – | 0.786 | 0.749 | 0.868 | 0.894 | 1.1 | 0.79 | 0.251
NCI-H1650 | 0.852 | 0.663 | 0.65 | 0.526 | 0.695 | 0.667 | 0.493 | 0.406 | 0.313 | 0.216 | 0.955 | 0.846 | 0.854 | 1.04 | 0.753 | 0.801 | 0.619 | 0.456 | 0.303 | 0.239
